Assay [1] deals with synthesis of LTB4 in human whole blood. Put plainly: human whole blood (HWB) assay, LTB4 production inhibition after calcimycin stimulation. The assay is classed as cell-based. Particulars: heparinized human whole blood, calcimycin 20 μM, plasma LTB4 by HTRF. The protocol: The compounds of the invention are additionally tested in a human whole blood (HWB) assay to determine their ability to inhibit the synthesis of LTB4 in a cellular system. Compounds are combined with heparinized human whole blood and incubated for 15 minutes at 37° C. Calcimycin (20 μM final, prepared in phosphate-buffered saline, pH 7.4) is then added and the mixture is incubated for another 30 minutes at 37° C. The samples are centrifuged for 5 min at low speed (1500×g) and the plasma layer is removed. Plasma LTB4 concentrations are then measured using an antibody-based homogenous time-resolved fluorescence method (CisBio, Bedford, Mass.). In general, the preferred potency range (IC50) of compounds in the HWB assay is between 10 nM to 10 μM, the more preferred potency range is 10 nM to 1 μM, and the most preferred potency range is 10 nM to 100 nM.
(In general: In TR-FRET formats the signal depends on donor and acceptor labels being close together.)

The next assay has as its target T1, human LTA4 hydrolase (Homo sapiens, UniProt P09960).
T1 sequence (P09960 1-611): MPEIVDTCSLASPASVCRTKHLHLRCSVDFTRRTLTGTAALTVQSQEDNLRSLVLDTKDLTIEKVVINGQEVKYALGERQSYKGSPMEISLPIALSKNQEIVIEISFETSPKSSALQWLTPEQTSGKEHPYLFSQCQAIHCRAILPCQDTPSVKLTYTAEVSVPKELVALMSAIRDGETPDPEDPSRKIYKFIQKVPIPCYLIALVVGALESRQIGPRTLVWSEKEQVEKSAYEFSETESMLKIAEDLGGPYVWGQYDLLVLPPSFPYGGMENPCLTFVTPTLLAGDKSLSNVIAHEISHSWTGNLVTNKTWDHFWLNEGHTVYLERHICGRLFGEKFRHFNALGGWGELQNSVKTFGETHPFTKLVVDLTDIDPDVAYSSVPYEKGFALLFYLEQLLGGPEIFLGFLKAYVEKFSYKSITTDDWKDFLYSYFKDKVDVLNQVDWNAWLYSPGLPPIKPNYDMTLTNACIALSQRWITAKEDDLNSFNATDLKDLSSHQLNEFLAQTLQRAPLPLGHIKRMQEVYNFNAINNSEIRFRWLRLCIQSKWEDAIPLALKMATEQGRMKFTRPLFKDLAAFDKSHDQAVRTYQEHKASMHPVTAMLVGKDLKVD
As to the kind of experiment: LTA4H Enzyme assay (cleavage of Arg-AMC, fluorescence). To be noted: LTA4H Enzyme 1 nM, Arg-AMC substrate 50 μM, room temperature 1 h, fluorescence; read-out: IC50 values of LTA4H Enzyme assay. The assay is classed as biochemical. The method in brief:
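Aminomethylcoumarin release measured fluorimetrically (380/460 nm) after 1 h at room temperature. Reaction: 1 nM final enzyme, 50 μM final Arg-AMC and compound in Tris-HCl pH 7.5 with 100 mM KCl and 0.5% BSA.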

The results in this text go back to patent US8946203B2, “Benzodioxane inhibitors of leukotriene production” (Boehringer Ingelheim International GmbH, priority 2012, dated 2015).

In general, IC50 refers to the concentration that inhibits the measured activity by half. Consider `CC(=O)N1CCCC12CCN(Cc1ccc([C@H]3COc4ccccc4O3)cc1)C2` (stereo partly drawn) [Example 118, 1-(7-{4-[(2S)-2,3-dihydro-1,4-benzodioxin-2-yl]benzyl}-1,7-diazaspiro[4.4]non-1-yl)ethanone], for which the IC50 came to 256 nM in assay [1] and 0.45 nM at human LTA4 hydrolase.

As for `CS(=O)(=O)CC(=O)N1C[C@@H]2C[C@H]1CN2Cc1ccc([C@H]2COc3cccnc3O2)cc1` [Example 256, 1-{(1S,4S)-5-[(S)-4-(2,3-Dihydro-[1,4]dioxino[2,3-b]pyridin-3-yl)-benzyl]-2,5-diaza-bicyclo[2.2.1]hept-2-yl}-2-methanesulfonyl-ethanone], the results for the IC50 (in assay [1]; on human LTA4 hydrolase) were 110 nM and 0.49 nM, respectively.

Regarding `COCC(=O)NC1CCN(Cc2ccc([C@H]3COc4cccnc4O3)cc2)CC1` [Example 252, N-{1-[(S)-4-(2,3-Dihydro-[1,4]dioxino[2,3-b]pyridin-3-yl)-benzyl]-piperidin-4-yl}-2-methoxy-acetamide], the IC50 in assay [1] amounted to 42 nM; at human LTA4 hydrolase, 0.15 nM.

As to `OC1CCN(Cc2ccc([C@H]3COc4cccnc4O3)cc2)CC1` [Example 186, 1-{4-[(3S)-2,3-dihydro[1,4]dioxino[2,3-b]pyridin-3-yl]benzyl}piperidin-4-ol], the IC50 in assay [1] was found to be 36 nM; on human LTA4 hydrolase, 0.24 nM.

Take `O=C(O)C1CCN(Cc2ccc([C@H]3COc4ccccc4O3)cc2)C1` (stereo partly drawn) [Example 61, 1-{4-[(2S)-2,3-dihydro-1,4-benzodioxin-2-yl]benzyl}pyrrolidine-3-carboxylic acid]: the results for the IC50 (in assay [1]; at human LTA4 hydrolase) were 250 nM and 0.6 nM, respectively.

Consider `COC1CCN(Cc2ccc([C@H]3COc4cccnc4O3)cc2)C1` (stereo partly drawn) [Example 168, (3S)-3-{4-[(3-methoxypyrrolidin-1-yl)methyl]phenyl}-2,3-dihydro[1,4]dioxino[2,3-b]pyridine], for which the figures for the IC50 (in assay [1]; at human LTA4 hydrolase) were 39 nM and 0.31 nM, respectively.

For `CN(Cc1ccc([C@H]2COc3cccnc3O2)cc1)C1CCCC1` [Example 142, N-{4-[(3S)-2,3-dihydro[1,4]dioxino[2,3-b]pyridin-3-yl]benzyl}-N-methylcyclopentanamine], the figures for the IC50 (in assay [1]; on human LTA4 hydrolase) were 24 nM and 0.17 nM, respectively.

`NC(=O)NC1CCN(Cc2ccc(C3COc4ccccc4O3)cc2)CC1` (racemic) [Example 53, 1-{1-[4-(2,3-dihydro-1,4-benzodioxin-2-yl)benzyl]piperidin-4-yl}urea]: the IC50 came out at 155 nM in assay [1] and 0.42 nM at human LTA4 hydrolase.

For the compound `CCN(Cc1ccc([C@H]2COc3ccccc3O2)cc1)C1CCCC1` [Example 109, N-{4-[(2S)-2,3-dihydro-1,4-benzodioxin-2-yl]benzyl}-N-ethylcyclopentanamine], the IC50 was determined as 76 nM in assay [1] and 0.17 nM on human LTA4 hydrolase.

In the case of `CC(=O)NC1CCN(Cc2ccc([C@H]3COc4cccnc4O3)cc2)CC1` [Example 160, N-(1-{4-[(3S)-2,3-dihydro[1,4]dioxino[2,3-b]pyridin-3-yl]benzyl}piperidin-4-yl)acetamide], the IC50 is 28 nM in assay [1] and 0.18 nM on human LTA4 hydrolase.

As to `CNC(=O)c1cn2c(n1)CN(Cc1ccc([C@H]3COc4cccnc4O3)cc1)CC2` [Example 244, 7-[(S)-4-(2,3-dihydro-[1,4]dioxino[2,3-b]pyridin-3-yl)-benzyl]-5,6,7,8-tetrahydro-imidazo[1,2-a]pyrazine-2-carboxylic acid methylamide], the IC50 in assay [1] was determined as 120 nM; on human LTA4 hydrolase, 0.26 nM.

`CC(C)(O)CNC(=O)C1CCN(Cc2ccc([C@H]3COc4cccnc4O3)cc2)CC1` [Example 255, 1-[(S)-4-(2,3-Dihydro-[1,4]dioxino[2,3-b]pyridin-3-yl)-benzyl]-piperidine-4-carboxylic acid (2-hydroxy-2-methyl-propyl)-amide]: the results for the 50% inhibitory concentration (IC50) (in assay [1]; on human LTA4 hydrolase) were 76 nM and 0.17 nM, respectively.

As to `FC1CCN(Cc2ccc([C@H]3COc4cccnc4O3)cc2)CC1` [Example 155, (3S)-3-{4-[(4-fluoropiperidin-1-yl)methyl]phenyl}-2,3-dihydro[1,4]dioxino[2,3-b]pyridine], the IC50 in assay [1] is 95 nM; on human LTA4 hydrolase, 0.28 nM.

In the case of `O=C(NC[C@@H]1CCCO1)C1CCN(Cc2ccc([C@H]3COc4cccnc4O3)cc2)CC1` [Example 287, 1-[(S)-4-(2,3-Dihydro-[1,4]dioxino[2,3-b]pyridin-3-yl)-benzyl]-piperidine-4-carboxylic acid [(S)-1-(tetrahydro-furan-2-yl)methyl]-amide], the IC50 in assay [1] stood at 55 nM; at human LTA4 hydrolase it was 0.19 nM.

With `O=C1OC[C@H]2CN(Cc3ccc([C@H]4COc5cccnc5O4)cc3)CCN12` [Example 285, (R)-7-[(S)-4-(2,3-Dihydro-[1,4]dioxino[2,3-b]pyridin-3-yl)-benzyl]-hexahydro-oxazolo[3,4-a]pyrazin-3-one], the concentration for half-maximal inhibition (IC50) in assay [1] turned out to be 200 nM; at human LTA4 hydrolase it was 1 nM.

On to `NC(=O)NC1CCN(Cc2ccc([C@H]3COc4cccnc4O3)cc2)CC1` [Example 187, 1-(1-{4-[(3S)-2,3-dihydro[1,4]dioxino[2,3-b]pyridin-3-yl]benzyl}piperidin-4-yl)urea], for which the IC50 in assay [1] was 177 nM; at human LTA4 hydrolase it was 0.07 nM.

`CC(C)(O)C(=O)NC1CCN(Cc2ccc([C@H]3COc4ccccc4O3)cc2)CC1` [Example 220, N-(1-{4-[(2S)-2,3-dihydro-1,4-benzodioxin-2-yl]benzyl}piperidin-4-yl)-2-hydroxy-2-methylpropanamide]: the IC50 in assay [1] is 91 nM; at human LTA4 hydrolase, 0.47 nM.

For `CN1CCC2(CCN(Cc3ccc([C@H]4COc5ccccc5O4)cc3)CC2)C1=O` [Example 121, 8-{4-[(2S)-2,3-dihydro-1,4-benzodioxin-2-yl]benzyl}-2-methyl-2,8-diazaspiro[4.5]decan-1-one], the IC50 was 159 nM in assay [1] and 0.37 nM on human LTA4 hydrolase.

Turning to `O=C(CO)N1CCN(Cc2ccc([C@H]3COc4cccnc4O3)cc2)CC1` [Example 253, 1-{4-[(S)-4-(2,3-Dihydro-[1,4]dioxino[2,3-b]pyridin-3-yl)-benzyl]-piperazin-1-yl}-2-hydroxy-ethanone], the figures for the IC50 (in assay [1]; on human LTA4 hydrolase) were 110 nM and 0.7 nM, respectively.

Consider `COC1CCCN(Cc2ccc([C@H]3COc4cccnc4O3)cc2)C1` (stereo partly drawn) [Example 158, (3S)-3-{4-[(3-methoxypiperidin-1-yl)methyl]phenyl}-2,3-dihydro[1,4]dioxino[2,3-b]pyridine], for which the values for the IC50 (in assay [1]; on human LTA4 hydrolase) were 28 nM and 0.13 nM, respectively.

On to `C[C@@H](CO)NC(=O)[C@H]1[C@@H]2CN(Cc3ccc([C@H]4COc5cccnc5O4)cc3)C[C@@H]21` [Example 248, [(1α,5α,6α)-3-[(S)-4-(2,3-Dihydro-[1,4]dioxino[2,3-b]pyridin-3-yl)-benzyl]-3-aza-bicyclo[3.1.0]hexane]-6-carboxylic acid ((S)-2-hydroxy-1-methyl-ethyl)-amide], for which the IC50 was determined as 58 nM in assay [1] and 0.17 nM on human LTA4 hydrolase.

As for `NC(=O)N1CC2CN(Cc3ccc([C@H]4COc5cccnc5O4)cc3)CC2C1` (stereo partly drawn) [Example 272, 5-[(S)-4-(2,3-Dihydro-[1,4]dioxino[2,3-b]pyridin-3-yl)-benzyl]-hexahydro-pyrrolo[3,4-c]pyrrole-2-carboxylic acid amide], the IC50 in assay [1] turned out to be 71 nM; on human LTA4 hydrolase, 0.09 nM.

Consider `O=C(C1CCN(Cc2ccc(C3COc4ccccc4O3)cc2)CC1)N1CCOCC1` (racemic) [Example 37, {1-[4-(2,3-dihydro-1,4-benzodioxin-2-yl)benzyl]piperidin-4-yl}(morpholin-4-yl)methanone], for which the IC50 in assay [1] was 324 nM; on human LTA4 hydrolase, 1.05 nM.

Regarding `CC(=O)NC1CCN(Cc2ccc([C@H]3COc4ccccc4O3)cc2)CC1` [Example 178, N-(1-{4-[(2S)-2,3-dihydro-1,4-benzodioxin-2-yl]benzyl}piperidin-4-yl)acetamide], the IC50 in assay [1] was found to be 160 nM; on human LTA4 hydrolase, 0.35 nM.

As for `O[C@H]1CCN(Cc2ccc(C3COc4ccccc4O3)cc2)C1` (mixture of isomers) [Example 9, (3S)-1-[4-(2,3-dihydro-1,4-benzodioxin-2-yl)benzyl]pyrrolidin-3-ol], the concentration for half-maximal inhibition (IC50) was determined as 285 nM in assay [1] and 1.49 nM on human LTA4 hydrolase.

Turning to `NC(=O)COC1CCN(Cc2ccc([C@H]3COc4cccnc4O3)cc2)CC1` [Example 274, 2-{1-[(S)-4-(2,3-Dihydro-[1,4]dioxino[2,3-b]pyridin-3-yl)-benzyl]-piperidin-4-yloxy}-acetamide], the IC50 in assay [1] is 100 nM; on human LTA4 hydrolase, 0.15 nM.
